Experimental data taken from patent US8088742B2, “Polyol-glycoside compositions for the skin” (Societe d'Exploitation de Produits pour les Industries …, priority 2002, dated 2012).

Tests used:
[1] = system: skin (epidermis) in a normal volunteer; assay: In vivo measurement of the moisturization of the skin with Hydrascan; set-up: species or system human; conditions: for Degree of moisturization of the skin measured with Hydrascan, Cycle 1: stratum corneum + superficial epidermis / Degree of moisturization of the skin measured with Hydrascan, Cycle 2: superficial + middle epidermis / Degree of moisturization of the skin measured with Hydrascan, Cycle 3: entire epidermis: percentage increase relative to placebo zone, topical 20 mg/cm2, 8 h after application, mean of six volunteers; for Degree of moisturization of the skin measured with Hydrascan, Cycle 1: stratum corneum + superficial epidermis / Degree of moisturization of the skin measured with Hydrascan, Cycle 2: superficial + middle epidermis / Degree of moisturization of the skin measured with Hydrascan, Cycle 3: entire epidermis / effect on the degree of moisturization of the epidermis (in words): 3% in cream gel; for effect on the degree of moisturization of the epidermis (in words): 8 h after application
Experimental: A-In Vivo Measurement of the Moisturization of the Skin in a Normal Volunteer by Means of […] effect on the degree of moisturization of the skin of various polyol-glycosides according to the invention, of glyceryl glucoside and of various polyols was measured and compared in humans. […] This device comprises a micro-effusimeter connected to a flexible sensor and makes it possible to produce a thermal wave which propagates within the epidermis, and to register the variation in temperature during the pulse. […] 5% (weight/volume) of Lanol® 99 (isononyl isononanoate); 0.5% (weight/volume) of […]® HB (phenoxy-ethanol, methyl-, ethyl-, propyl-, butylparaben). A cream gel having the same composition but containing no test product is used as a placebo. The study is carried out on three groups of six volunteers, as a double-blind study, i.e. neither the experimenter nor the volunteer knows the identity of the test product. The following four skin zones are defined on the forearms of each volunteer: The products are applied topically at a rate of 20 mg/cm^2, the measurements being carried out 8 h after application. […] The degree of moisturization is measured by means of […]®, on each skin zone defined above, the values obtained for each of the three cycles being recorded and expressed as percentage increase in moisturization of the skin relative to the zone treated with the placebo.

[2] = system: normal human dermal fibroblast cultures; assay: In vitro measurement of the production of hyaluronic acid in fibroblast cultures; format: cell-based; conditions: 5 days of incubation; for effect on the amount of extracellular hyaluronic acid (in words): 0.01% and 0.1% (w/v)
Experimental: B—In Vitro Measurement of the Effect of the Polyol-Glycosides According to the Invention on the Production of Hyaluronic Acid
To confirm the moisturizing activity of the polyol-glycosides according to the invention, the effect of these products on the amount of hyaluronic acid was measured. It is in fact known that hyaluronic acid is a major non-sulfated glycosaminoglycan which plays an essential role in moisturizing the skin, by means of its ability to attach up to 1000 times its weight in water.
The amount of hyaluronic acid is measured in normal human dermal fibroblast cultures.
The cells are incubated for 5 days in the presence of the test products solubilized in the incubation medium.
At the end of this incubation, the extracellular media, into which the hyaluronic acid is secreted, are removed.
The hyaluronic acid is stained with a specific dye, STAINS ALL ((1-ethyl-2-[3-(1-ethylnaphtho[1,2-d]thiazolin-2-ylidene)-2-methylpropenyl]naphtho[1,2-d]thiazolium) bromide, provided by Sigma), which interacts with the hyaluronic acid to produce a change of absorption spectrum between 620 and 660 nm, observed by means of a spectrophotometer. A standard range of hyaluronic acid is effected in parallel.
The polyols and the polyol-glucosides are tested in aqueous solution at 0.01% and 0.1% (w/v).
D0: seeding of the fibroblasts (24-well culture plates, 15 300 cells/well);
D3: incubation of the products tested, diluted in the fibroblast incubation medium;
D8: removal of the fibroblast incubation media, assaying of the hyaluronic acid.
At the end of the 5 days of incubation in the presence of the products, the incubation media are removed and incubated in the presence of STAINS ALL. The colorimetric reaction is visualized by adding water.
The quantification is carried out by spectrophotometry for a wavelength of 630 nm.
A standard range of hyaluronic acid (0 to 12.5 μg/ml) is effected in parallel.
The results are expressed in μg/ml of extracellular hyaluronic acid.
The results which were obtained, expressed as percentage increase in the amount of extracellular hyaluronic acid relative to the control group, are reported in the following table: […]

[3] = system: human skin explant; assay: In vitro measurement of the synthesis of epidermal ceramides in human skin explant model; format: cell-based; conditions: for effect on the neosynthesis of ceramides 1 and 2 (in words): 24 hours on human skin explants; for percentage increase in the amount of ceramide 1 relative to the control group / percentage increase in the amount of ceramide 2 relative to the control group: topical 3% in cream gel (EGF 10 ng/ml in culture medium), 24 hours, 14C-acetate labeling
Experimental: C—In Vitro Measurement of the Xylityl Glucoside According to the Invention on the Synthesis of Epidermal Ceramides
The study is carried out in vitro in a human skin explant model. The products, formulated at 3% in a cream gel, are applied to the surface of the skin explants for 24 hours. The neosynthesis of the epidermal lipids is studied by radioactive labeling (carbon 14-labeled acetate) of the neosynthesized lipids, followed by thin layer chromatography to separate the various types of lipids and in particular the ceramides.
The xylityl glucoside according to example 1 of the invention, formulated at 3% in a cream gel comprising 2% of Sepigel® 305, 5% of Lanol 99, and qs of water.
Epidermal growth factor (EGF), known to increase the synthesis of ceramides, which constitutes a reference molecule for this test. The EGF is tested at 10 ng/ml in the skin explant culture medium.
A commercially available formulation containing lactic acid, which constitutes a reference for the test, lactic acid being known to increase the synthesis of ceramides.
The study is carried out on disks of human skin originating from cosmetic surgery (abdominoplasty, person). Disks 8 mm in diameter are produced using a hole punch and deposited onto culture inserts placed in culture wells containing an appropriate nutritive medium (MEM/M199 medium (¾, ¼, v/v) supplemented with penicillin (50 IU/ml, streptomycin (50 μg/ml), sodium bicarbonate (0.2% w/v), serum (2% v/v) and carbon 14-labeled acetate (1 μCi/ml)).
The products are tested by topical application (except for the EGF) for 24 hours.
At the end of the 24 hours of incubation, the skin explants are rinsed with phosphate buffered saline. For each disk of skin, the dermis is dissociated from the epidermis by controlled heat shock (1 min at 70° C.). The epidermal lipids are extracted by a partition between an organic phase (methanol/chloroform (1:2)) and an aqueous phase (0.25 M potassium chloride). The organic phase is then evaporated under vacuum and the residue is taken up in a chloroform/methanol (2:1) mixture.
The various epidermal lipids are then separated by thin layer chromatography (silica 60): chloroform/acetone/methanol (38:2:10); chloroform/acetone/methanol (40:5:5); chloroform/ethyl acetate/diethyl ether/methanol (36:10:3:1). The radioactivity of the fractions thus separated is counted with a radioactivity analyzer (Storm, Amersham).
The results are expressed as % variation relative to the control group.

[4] = system: skin; assay: Evaluation on the skin of acute skin irritation (Primary Cutaneous Irritation index); format: in vivo; conditions: for PCI index: Primary Cutaneous Irritation index; for Irritation classification: scale of the protocol in Journal Officiel de la République Francaise of Feb. 21, 1982
Experimental: The skin tolerance of the various polyol-glycosides was evaluated by means of a study of “evaluation on the skin of acute skin irritation”, carried out by an independent pharmaceutical and cosmetic consultancy-expertise company.
The Primary Cutaneous Irritation (PCI) index measurements, carried out according to the same protocol, are contained in the following table:
Each compound studied is classified, in view of the results obtained under the selected experimental conditions, nonirritant for the skin, with reference to the scale proposed in the protocol described in the Journal Officiel de la République Francaise [Official Journal of the French Republic] of Feb. 21, 1982.

## OC[C@@H](O)[C@@H](O)CO [Erythritol, erythritol]
[1]
  Degree of moisturization of the skin measured with Hydrascan, Cycle 1: stratum corneum + superficial epidermis: +9%
  Degree of moisturization of the skin measured with Hydrascan, Cycle 2: superficial + middle epidermis: +9%
  Degree of moisturization of the skin measured with Hydrascan, Cycle 3: entire epidermis: +9%
[2]
  effect on the amount of extracellular hyaluronic acid (in words): no effect
[2]; concentration 0.01% (w/v)
  percentage increase in the amount of extracellular hyaluronic acid relative to the control group: <10%
[2]; concentration 0.1% (w/v)
  percentage increase in the amount of extracellular hyaluronic acid relative to the control group: <10%

## OCC(O)CO [Glycerol, glycerol]
[3]
  effect on the neosynthesis of ceramides 1 and 2 (in words): not observed
[2]
  effect on the amount of extracellular hyaluronic acid (in words): no effect

## OC[C@@H](O)[C@H](O)[C@@H](O)CO [Xylitol, xylitol]
[1]
  effect on the degree of moisturization of the epidermis (in words): no effect
  Degree of moisturization of the skin measured with Hydrascan, Cycle 1: stratum corneum + superficial epidermis: <5%
  Degree of moisturization of the skin measured with Hydrascan, Cycle 2: superficial + middle epidermis: <5%
  Degree of moisturization of the skin measured with Hydrascan, Cycle 3: entire epidermis: <5%
[2]
  effect on the amount of extracellular hyaluronic acid (in words): no effect
[2]; concentration 0.01% (w/v)
  percentage increase in the amount of extracellular hyaluronic acid relative to the control group: <10%
[2]; concentration 0.1% (w/v)
  percentage increase in the amount of extracellular hyaluronic acid relative to the control group: <10%

## O=C[C@H](O)[C@@H](O)[C@H](O)CO [Xylose, xylose]
[1]
  effect on the degree of moisturization of the epidermis (in words): no moisturizing effectiveness
  Degree of moisturization of the skin measured with Hydrascan, Cycle 1: stratum corneum + superficial epidermis: <5%
  Degree of moisturization of the skin measured with Hydrascan, Cycle 2: superficial + middle epidermis: <5%
  Degree of moisturization of the skin measured with Hydrascan, Cycle 3: entire epidermis: <5%

## EGF: Epidermal growth factor, known to increase the synthesis of ceramides, reference molecule for this test
[3]
  effect on the neosynthesis of ceramides 1 and 2 (in words): act, but less effectively
  percentage increase in the amount of ceramide 1 relative to the control group: 166.1%
  percentage increase in the amount of ceramide 2 relative to the control group: 152.3%

## Erythrityl Glucoside [Example 2]
[4]
  PCI index: 0
  Irritation classification: Nonirritant
[1]
  Degree of moisturization of the skin measured with Hydrascan, Cycle 1: stratum corneum + superficial epidermis: +18%
  Degree of moisturization of the skin measured with Hydrascan, Cycle 2: superficial + middle epidermis: +11%
  Degree of moisturization of the skin measured with Hydrascan, Cycle 3: entire epidermis: +12%
[2]; concentration 0.01% (w/v)
  percentage increase in the amount of extracellular hyaluronic acid relative to the control group: +64%
[2]; concentration 0.1% (w/v)
  percentage increase in the amount of extracellular hyaluronic acid relative to the control group: <10%

## Glyceryl Glucoside [Comparative example]
[4]
  PCI index: 0
  Irritation classification: Nonirritant
[1]
  Degree of moisturization of the skin measured with Hydrascan, Cycle 1: stratum corneum + superficial epidermis: <5%
  Degree of moisturization of the skin measured with Hydrascan, Cycle 2: superficial + middle epidermis: <5%
  Degree of moisturization of the skin measured with Hydrascan, Cycle 3: entire epidermis: <5%
[2]
  effect on the amount of extracellular hyaluronic acid (in words): does not increase
[2]; concentration 0.01% (w/v)
  percentage increase in the amount of extracellular hyaluronic acid relative to the control group: <10%
[2]; concentration 0.1% (w/v)
  percentage increase in the amount of extracellular hyaluronic acid relative to the control group: <10%

## Xylityl Glucoside [Example 1]
[4]
  PCI index: 0
  Irritation classification: Nonirritant
[3]
  effect on the neosynthesis of ceramides 1 and 2 (in words): significantly increases
  percentage increase in the amount of ceramide 1 relative to the control group: 295.7%
  percentage increase in the amount of ceramide 2 relative to the control group: 236.5%
[1]
  effect on the degree of moisturization of the epidermis (in words): very substantially increases
  Degree of moisturization of the skin measured with Hydrascan, Cycle 1: stratum corneum + superficial epidermis: +28%
  Degree of moisturization of the skin measured with Hydrascan, Cycle 2: superficial + middle epidermis: +33%
  Degree of moisturization of the skin measured with Hydrascan, Cycle 3: entire epidermis: +30%
[1]; difference to glycerol across the epidermal layers
  increase in degree of moisturization greater than that obtained with glycerol: 14 to 20%
[2]
  effect on the amount of extracellular hyaluronic acid (in words): increase
[2]; concentration 0.01% (w/v)
  percentage increase in the amount of extracellular hyaluronic acid relative to the control group: +158%
[2]; concentration 0.1% (w/v)
  percentage increase in the amount of extracellular hyaluronic acid relative to the control group: +161%
